According to patent US6123916A, “Therapeutic use of somatostatin peptides” (priority 1990, dated 2000):

Test system: GH-release (serum GH-level)
Experiment: Depression of serum GH-levels in male rats 1 hour after s.c. administration (radio-immuno-assay)
Type: in vivo, rat
Details: blood taken 1 hour after administration
Protocol: This test is carried out employing male rats. The test-substance is administered at varying, logarithmically staggered doses employing at least 5 rats per dose. 1 hour after s.c. administration of the test substance blood is taken. The determination of the blood serum GH-level is effected by radio-immuno-assay.

## C[C@H](N)C(=O)NCC(=O)N[C@H]1CSSC[C@@H](C(=O)O)NC(=O)[C@H](CO)NC(=O)[C@H]([C@@H](C)O)NC(=O)[C@H](Cc2ccccc2)NC(=O)[C@H]([C@@H](C)O)NC(=O)[C@H](CCCCN)NC(=O)[C@H](Cc2c[nH]c3ccccc23)NC(=O)[C@H](Cc2ccccc2)NC(=O)[C@H](Cc2ccccc2)NC(=O)[C@H](CC(N)=O)NC(=O)[C@H](CCCCN)NC1=O [natural somatostatin, somatostatin]
  ID50 (amount of compound required to lower the GH content by 50% compared with untreated control animals): 0.95 mg/kg
